Experimental data published in patent publication US7385026B1, “Modified ghrelin polypeptides” (priority 1999, dated 2008).
pEC50: −log10 of the molar value. Square brackets hold non-standard residues; d marks the D form. Peptide text beside a SMILES is read from it. * marks the point of attachment. Octanoyl = CCCCCCCC(=O)*; Aib = CC(C)(N)C(=O)O; Octyl = CCCCCCCC*

The compounds below were run against T1, rat GHS-receptor (GHR-R) (Rattus norvegicus, UniProt O08725) (assay: Ca-releasing activity (increase in intracellular calcium) in CHO-GHSR62 cells, FLIPR). Details: CHO-GHSR62 cells.
T1 construct: A full-length cDNA for rat GHR-R was obtained by RT-PCR; expressed in transfected cells
T1 sequence (O08725 whole entry): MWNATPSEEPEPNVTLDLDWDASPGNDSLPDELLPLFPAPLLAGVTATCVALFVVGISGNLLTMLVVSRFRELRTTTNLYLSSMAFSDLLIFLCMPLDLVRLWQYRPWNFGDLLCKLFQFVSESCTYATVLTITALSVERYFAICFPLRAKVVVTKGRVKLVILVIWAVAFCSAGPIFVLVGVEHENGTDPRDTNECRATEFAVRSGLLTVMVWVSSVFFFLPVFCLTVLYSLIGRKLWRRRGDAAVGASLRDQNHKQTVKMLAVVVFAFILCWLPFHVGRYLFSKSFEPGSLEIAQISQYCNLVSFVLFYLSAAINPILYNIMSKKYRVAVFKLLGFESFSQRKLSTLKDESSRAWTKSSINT
Format: cell-based
Description: To assay an increase in the intracellular calcium ion concentration (Ca-releasing activity) occurring upon binding of a GH secretagogue (GHS) to GHS-receptor (GHR-R), a cell strain expressing rat GHR-R was created in the following manner. A full-length cDNA for rat GHR-R was obtained by RT-PCR (reverse transcriptase-polymerase chain reaction) where a cDNA derived from rat brain was used as template. From the nucleotide sequence of known rat GHR-R [K. K. Mckee, et al, Molecular Endocrinology 11, 415-423 (1997)], sense and antisense primers consisting of the following nucleotide sequences were synthesized.
The amplified cDNA was ligated to vector pcDNAIII (Invitrogen) to construct expression vector GHSR-pcDNAIII. CHO cells were transformed via the expression vector, and the transformed cells stably expressing GHR-R were selected in a medium containing 1 μg/ml G418. […] A change in the intracellular calcium ion concentration (Ca-releasing activity) was measured by an FLIPR system (Molecular Device). Before this measurement, 4×10^4 CHO-GHSR62 cells were put to a 96-well microplate with black wall (Corning Co., Ltd) and cultured for 12 to 15 hours. Then, the cells were incubated with 4 μM fluorescent Fluo4 (Molecular Probe Co., Ltd) for 1 hour and washed four times with Hank's BSS (Hank's Balanced Salt Solution) containing 20 mM Hepes ([N-2-hydroxyethyl]-piperazine-N-[2-ethanesulfonic acid]) and 2.5 mM probenecid, and the Ca-releasing activity was assayed by adding a sample and measuring a change in the fluorescence.
Peptide fragments obtained by partially digested the rat- and human-derived ghrelins by various proteases, or chemically synthesized peptides, were examined for their Ca releasing activity in order to determine a core amino acid sequence and the optimum chain length of a modifying fatty acid necessary for Ca-releasing activity.
The Ca-increasing activities of the ghrelin derivative peptide-type compounds synthesized in Example 10 and the natural ghrelin peptide were measured in the same manner as in Example 1.
In this examination, the intracellular Ca-releasing activity in CHO cells expressing rat GSH receptor was used as the indicator.
For `CCCCCCCC(=O)O` [n-octanoic acid, reference compound], the “Ca-releasing activity (in words)” value was “did not show a significant Ca-releasing activity”.

Same assay, conditions: CHO-GHSR62 cells (CHO cells expressing rat GHS receptor), FLIPR; read-out: Ca-releasing activity EC50
`CCCCCCCOC(=O)C[C@H](NC(=O)[C@H](CO)NC(=O)CN)C(=O)N[C@@H](Cc1ccccc1)C(=O)N[C@@H](CC(C)C)C(=O)N[C@@H](CO)C(=O)N1CCC[C@H]1C(=O)N[C@@H](CCC(=O)O)C(=O)N[C@@H](Cc1c[nH]cn1)C(=O)N[C@@H](CCC(N)=O)C(=O)N[C@@H](CCCNC(=N)N)C(=O)N[C@H](C(=O)N[C@@H](CCC(N)=O)C(=O)N[C@@H](CCC(N)=O)C(=O)N[C@@H](CCCNC(=N)N)C(=O)N[C@@H](CCCCN)C(=O)N[C@@H](CCC(=O)O)C(=O)N[C@@H](CO)C(=O)N[C@@H](CCCCN)C(=O)N[C@@H](CCCCN)C(=O)N1CCC[C@H]1C(=O)N1CCC[C@H]1C(=O)N[C@@H](C)C(=O)N[C@@H](CCCCN)C(=O)N[C@@H](CC(C)C)C(=O)N[C@@H](CCC(N)=O)C(=O)N1CCC[C@H]1C(=O)N[C@@H](CCCNC(=N)N)C(=O)O)C(C)C` [Compound 54, [Asp^3(O-Heptyl)]-hGhrelin] was tested, and the pEC50 was 8.29.
With `CCCCCCCCOC[C@@H](NC(=O)[C@H](Cc1c[nH]cn1)NC(=O)C(C)(C)N)C(=O)N[C@H](Cc1ccccc1)C(=O)N[C@@H](CCCCN)C(N)=O` [Compound 79, [Aib^1, His^2, ^DSer^3(Octyl), ^DPhe^4, Lys^5]-Ghrelin (1-5)-amide] (H-[Aib]H[dS](Octyl)[dF]K-NH2) the pEC50 was 7.42.
`CC(=O)OC[C@H](NC(=O)[C@H](CO)NC(=O)CN)C(=O)N[C@@H](Cc1ccccc1)C(=O)N[C@@H](CC(C)C)C(=O)N[C@@H](CO)C(=O)N1CCC[C@H]1C(=O)N[C@@H](CCC(=O)O)C(=O)N[C@@H](Cc1c[nH]cn1)C(=O)N[C@@H](CCC(N)=O)C(=O)N[C@@H](CCCCN)C(=O)N[C@@H](C)C(=O)N[C@@H](CCC(N)=O)C(=O)N[C@@H](CCC(N)=O)C(=O)N[C@@H](CCCNC(=N)N)C(=O)N[C@@H](CCCCN)C(=O)N[C@@H](CCC(=O)O)C(=O)N[C@@H](CO)C(=O)N[C@@H](CCCCN)C(=O)N[C@@H](CCCCN)C(=O)N1CCC[C@H]1C(=O)N1CCC[C@H]1C(=O)N[C@@H](C)C(=O)N[C@@H](CCCCN)C(=O)N[C@@H](CC(C)C)C(=O)N[C@@H](CCC(N)=O)C(=O)N1CCC[C@H]1C(=O)N[C@@H](CCCNC(=N)N)C(=O)O` [Compound 8, [Ser^3(Acetyl)]-rGhrelin] showed a pEC50 of 6.11.
`CC(C)C[C@H](NC(=O)[C@H](CCCCN)NC(=O)[C@H](C)NC(=O)[C@@H]1CCCN1C(=O)[C@@H]1CCCN1C(=O)[C@H](CCCCN)NC(=O)[C@H](CCCCN)NC(=O)[C@H](CO)NC(=O)[C@H](CCC(=O)O)NC(=O)[C@H](CCCCN)NC(=O)[C@H](CCCNC(=N)N)NC(=O)[C@H](CCC(N)=O)NC(=O)[C@H](CCC(N)=O)NC(=O)[C@@H](NC(=O)[C@H](CCCNC(=N)N)NC(=O)[C@H](CCC(N)=O)NC(=O)[C@H](Cc1c[nH]cn1)NC(=O)[C@H](CCC(=O)O)NC(=O)[C@@H]1CCCN1C(=O)[C@H](CO)NC(=O)[C@H](CC(C)C)NC(=O)[C@H](Cc1ccccc1)NC(=O)[C@H](COCc1ccccc1)NC(=O)[C@H](CO)NC(=O)CN)C(C)C)C(=O)N[C@@H](CCC(N)=O)C(=O)N1CCC[C@H]1C(=O)N[C@@H](CCCNC(=N)N)C(=O)O` [Compound 67, [Ser^3(Bzl)]-hGhrelin] was tested, and the pEC50 was 8.12.
Work on `CCCCCCCC(=O)NC[C@H](NC(=O)[C@H](CO)NC(=O)CN)C(=O)N[C@@H](Cc1ccccc1)C(=O)N[C@@H](CC(C)C)C(=O)N[C@@H](CO)C(=O)N1CCC[C@H]1C(=O)N[C@@H](CCC(=O)O)C(=O)N[C@@H](Cc1cnc[nH]1)C(=O)N[C@@H](CCC(N)=O)C(=O)N[C@@H](CCCNC(=N)N)C(=O)N[C@H](C(=O)N[C@@H](CCC(N)=O)C(=O)N[C@@H](CCC(N)=O)C(=O)N[C@@H](CCCNC(=N)N)C(=O)N[C@@H](CCCCN)C(=O)N[C@@H](CCC(=O)O)C(=O)N[C@@H](CO)C(=O)N[C@@H](CCCCN)C(=O)N[C@@H](CCCCN)C(=O)N1CCC[C@H]1C(=O)N1CCC[C@H]1C(=O)N[C@@H](C)C(=O)N[C@@H](CCCCN)C(=O)N[C@@H](CC(C)C)C(=O)N[C@@H](CCC(N)=O)C(=O)N1CCC[C@H]1C(=O)N[C@@H](CCCNC(=N)N)C(=O)O)C(C)C` [Compound 56, [Dap^3(Octanoyl)]-hGhrelin] yielded a pEC50 of 8.59.
Work on `CC(C)C[C@H](NC(=O)[C@H](CCCCN)NC(=O)[C@H](C)NC(=O)[C@@H]1CCCN1C(=O)[C@@H]1CCCN1C(=O)[C@H](CCCCN)NC(=O)[C@H](CCCCN)NC(=O)[C@H](CO)NC(=O)[C@H](CCC(=O)O)NC(=O)[C@H](CCCCN)NC(=O)[C@H](CCCNC(=N)N)NC(=O)[C@H](CCC(N)=O)NC(=O)[C@H](CCC(N)=O)NC(=O)[C@@H](NC(=O)[C@H](CCCNC(=N)N)NC(=O)[C@H](CCC(N)=O)NC(=O)[C@H](Cc1c[nH]cn1)NC(=O)[C@H](CCC(=O)O)NC(=O)[C@@H]1CCCN1C(=O)[C@H](CO)NC(=O)[C@H](CC(C)C)NC(=O)[C@H](Cc1ccccc1)NC(=O)[C@H](CCCCN)NC(=O)[C@H](CO)NC(=O)CN)C(C)C)C(=O)N[C@@H](CCC(N)=O)C(=O)N1CCC[C@H]1C(=O)N[C@@H](CCCNC(=N)N)C(=O)O` [Compound 72, [Lys^3]-hGhrelin] yielded a pEC50 of 6.92.
For `CCCCCCCCOC[C@@H](NC(=O)[C@H](CO)NC(=O)CN)C(=O)N[C@@H](Cc1ccccc1)C(=O)N[C@@H](CC(C)C)C(=O)N[C@@H](CO)C(=O)N1CCC[C@H]1C(N)=O` [Compound 52, [^DSer^3(Octyl)]-Ghrelin (1-7)-amide], the pEC50 was < 5.00.
With `CCCCCCCC(=O)OC[C@H](NC(=O)[C@H](CC(C)C)NC(=O)CN)C(=O)N[C@@H](Cc1ccccc1)C(=O)N[C@@H](CC(C)C)C(=O)N[C@@H](CO)C(=O)N1CCC[C@H]1C(N)=O` [Compound 44, [Leu^2]-Ghrelin (1-7)-amide] (H-GLS(Octanoyl)FLSP-NH2) the pEC50 was 7.38.
Compound `CC(C)C[C@H](NC(=O)[C@H](CCCCN)NC(=O)[C@H](C)NC(=O)[C@@H]1CCCN1C(=O)[C@@H]1CCCN1C(=O)[C@H](CCCCN)NC(=O)[C@H](CCCCN)NC(=O)[C@H](CO)NC(=O)[C@H](CCC(=O)O)NC(=O)[C@H](CCCCN)NC(=O)[C@H](CCCNC(=N)N)NC(=O)[C@H](CCC(N)=O)NC(=O)[C@H](CCC(N)=O)NC(=O)[C@@H](NC(=O)[C@H](CCCNC(=N)N)NC(=O)[C@H](CCC(N)=O)NC(=O)[C@H](Cc1c[nH]cn1)NC(=O)[C@H](CCC(=O)O)NC(=O)[C@@H]1CCCN1C(=O)[C@H](CO)NC(=O)[C@H](CC(C)C)NC(=O)[C@H](Cc1ccccc1)NC(=O)[C@@H](NC(=O)[C@H](CO)NC(=O)CN)C(C)C)C(C)C)C(=O)N[C@@H](CCC(N)=O)C(=O)N1CCC[C@H]1C(=O)N[C@@H](CCCNC(=N)N)C(=O)O` [Compound 74, [Val^3]-hGhrelin] has a pEC50 of 5.80.
`CCCCCCCCOC[C@H](NC(=O)CCCCN)C(=O)N[C@@H](Cc1ccccc1)C(=O)N[C@@H](CC(C)C)C(=O)NC` [Compound 82, [N-Aminopentanoyl, Ser^3(Octyl)]-Ghrelin (3-5)-methylamide] was tested, and the pEC50 was 7.92.
Compound `CCCCCCCCCCCC(=O)OC[C@H](NC(=O)[C@H](CO)NC(=O)CN)C(=O)N[C@@H](Cc1ccccc1)C(=O)N[C@@H](CC(C)C)C(=O)N[C@@H](CO)C(=O)N1CCC[C@H]1C(=O)N[C@@H](CCC(=O)O)C(=O)N[C@@H](Cc1c[nH]cn1)C(=O)N[C@@H](CCC(N)=O)C(=O)N[C@@H](CCCCN)C(=O)N[C@@H](C)C(=O)N[C@@H](CCC(N)=O)C(=O)N[C@@H](CCC(N)=O)C(=O)N[C@@H](CCCNC(=N)N)C(=O)N[C@@H](CCCCN)C(=O)N[C@@H](CCC(=O)O)C(=O)N[C@@H](CO)C(=O)N[C@@H](CCCCN)C(=O)N[C@@H](CCCCN)C(=O)N1CCC[C@H]1C(=O)N1CCC[C@H]1C(=O)N[C@@H](C)C(=O)N[C@@H](CCCCN)C(=O)N[C@@H](CC(C)C)C(=O)N[C@@H](CCC(N)=O)C(=O)N1CCC[C@H]1C(=O)N[C@@H](CCCNC(=N)N)C(=O)O` [Compound 13, [Ser^3(Lauroyl)]-rGhrelin] has a pEC50 of 8.62.

Same assay, conditions: Table 3, Example 9: protease fragments or synthetic peptides; CHO-GHSR62 cells; read-out: Ca-releasing activity (EC50)
Work on `CCCCCCCC(=O)OC[C@H](NC(=O)[C@H](CO)NC(=O)CN)C(=O)N[C@@H](Cc1ccccc1)C(=O)N[C@@H](CC(C)C)C(=O)N[C@@H](CO)C(=O)N1CCC[C@H]1C(=O)N[C@@H](CCC(=O)O)C(=O)O` [Compound 27, Ghrelin (1-8)] yielded a pEC50 of 7.00.
